One series has as its system tumor bearing tibias. The series can be described thus: Bone density (BV/TV) of tumor bearing tibias by CT scanning in myeloma model. To be noted: compared to vehicle control (VC) treated tumor bearing mice. In kind it is in vivo. The method, then:
FIG. 43. MTI-101 treated mice show increased trabecular bone density compared to tumor-bearing vehicle control-treated mice (VC). The same 10 tibia bones imaged by Faxitron in FIG. 43 were imaged with a Micro PET/SPECT/CT (Siemens Inveon). After imaging, the bones were reconstructed using COBRA (Constraint Based Reconstruction and Analysis) and analyzed with the Siemens Inveon workstation. 30 separate longitudinal images for each tibia were measured for both bone volume and total volume with the indicated parameters (2 mm below growth plate to 2 mm above junction with fibula). All 30 images were combined and the tibia were analyzed by bone volume/total volume (BV/TV). Images of the control group were compared to both MTI-101 and bortezomib treated mice. […] The same bones that were assayed for tumor volume in FIG. 43 were used to determine bone density by CT scanning.

For series [1] the following is noted: reported; independent of the direct effect on the myeloma cell; cited from earlier work.
The nature of series [2]: Stability of MTI-101 in plasma (rat). In kind it is in vitro ADME.
Series [3] in a line: Stability of MTI-101 in plasma (dog). It is filed as in vitro ADME.
Series [4] is described as follows: Stability of MTI-101 in plasma (mouse). In kind it is in vitro ADME. To be noted: room temperature.
A further series relates to RAW 264.7 cells. The series can be described thus: Annexin V flow cytometry cell death assay in RAW 264.7 cells. It is filed as cell-based, murine. As for the experimental part:
FIGS. 5A-5D show the effect of a cyclic HYD1 peptide (MTI-101) on RAW 264.7 cells (FIGS. 5A and 5B) and on RAW 264.7 cell-differentiated osteoclasts (FIGS. 5C and 5D). RAW 264.7 cells were treated with 6.25 to 50 μM MTI-101 and at the end of 24 hrs the cells were scrapped and spun down. After a single wash the cells were stained with Annexin V-FITC dye. The resulting Annexin V positivity was determined using Calibur Flow cytometry. RAW 264.7 cells were treated with 6.25 to 50 μM and incubated for 72 hrs. At the end of the incubation 2 mg/ml of 3-(4,5-dimethythiazol-2-yl)-2,5-diphenyl tetrazolium bromide (MTT). After 4 hours incubation, the resulting formazan product was solubilized by addition of DMSO and the resulting color was measured by a plate reader. […] For quantification, the cells in each treated well were manually counted using a light microscope (FIG. 5C). […]
FIGS. 6A-6C show the effect of cyclic peptide (MTI-101) on RAW 264.7 cells and on RAW 264.7 cell-differentiated osteoclasts. […] The resulting Annexin V positivity was determined using Calibur Flow cytometry. […] After 4 hours incubation the resulting formazan product was solubilized by addition of DMSO and the resulting color was measured by a plate reader. […] For quantification, the cells in each treated well were manually counted using a light microscope. […]
Background: Flow cytometry measures light scatter and fluorescence of single cells or particles in a stream.

[5] abbreviates: 4 degrees Celsius, read-out: Stability - 24 Hour 4 Degrees Celsius.
Where [6] appears, read: room temperature, read-out: Stability - 24 Hour Room Temperature.

Numbered stars: 1 amine (or outer) side, 2 acyl side, 3 side chain; on linkers, the order of the positions; unused ones are H or OH. Bridge positions count the residues as written; N and C are the ends. Square brackets hold non-standard residues; d marks the D form. Peptide text beside a SMILES is read from it. * marks the point of attachment. dProlinol(O-CH2CO) = O=C(COC[C@H]1CCCN1[*:1])[*:2]; N(2-Aminoethyl)Gly = O=C(CN(CCN[*:3])[*:1])[*:2]; Nle = CCCC[C@H](N)C(=O)O; Ms = CS(=O)(=O)*

`CC(C)C[C@H](NC(=O)[C@H](Cc1ccccc1)NC(=O)c1cnccn1)B(O)O` [bortezomib]: the “bone density (bone volume/total volume, BV/TV)” value in the series with tumor bearing tibias is “increased bone density”. The bone anabolic effects result in series [1] was “induce bone anabolic effects”.

`CCCC[C@@H]1NC(=O)CN(S(C)(=O)=O)CCNC(=O)[C@H](CCCCN)NC(=O)[C@H](CC(C)C)NC(=O)[C@H](CCCCN)NC(=O)[C@H](CC(C)C)NC(=O)[C@H](CCCCN)NC(=O)COC[C@H]2CCCN2C(=O)[C@H](Cc2c[nH]c3ccccc23)NC(=O)[C@H](C)NC(=O)[C@H](C(C)C)NC(=O)[C@H](C(C)C)NC1=O` [MTI-101] (Ms-[N(2-Aminoethyl)Gly][Nle]VVAW[dProlinol(O-CH2CO)]KLKLK; lactam 1-C): the remaining at 24 h was determined as 94% in series [2] (setting [5]); 90% in series [2] (setting [6]); 83% in series [3] (setting [5]); 67% in series [3] (setting [6]); 85% in series [4]. In addition, the “cell death (Annexin V positivity)” value in the series with RAW 264.7 cells (multiple dosing 6.25 to 50 μM on days 1, 3 and 5, read day 7) is “nor did it induce cell death”; in the series with RAW 264.7 cells (single treatment 6.25 to 50 μM, 24 hrs), “nor did it induce cell death”.

Turning to `CC(C)C[C@H](NC(=O)[C@H](CCc1ccccc1)NC(=O)CN1CCOCC1)C(=O)N[C@@H](Cc1ccccc1)C(=O)N[C@@H](CC(C)C)C(=O)[C@@]1(C)CO1` [carfilzomib], in series [1], the bone anabolic effects result is “induce bone anabolic effects”.
